Laboratory results from patent US9011935B2, “Therapeutic composition and use” (priority 2006, dated 2015).

Columns and labels:
[1] = test system: Methicillin Resistant Staphylococcus Aureus (MRSA); experiment: Agar plate antibacterial test (Example 1); conditions: liquid added to hollow circle of seeded agar plate, FIG. 1
Procedure: (§1) A 1M solution of potassium nitrite was prepared by diluting 8.51 g of KNO2 in 100 ml of distilled water. 17.612 g of ascorbic acid was diluted in 100 ml of distilled water to form a 1M solution. The three stock solutions were prepared a few minutes prior to the experiments.
(§2) A volume of NaNO2 and an equal volume of KNO2 were mixed with twice the volume of ascorbic acid in a sterile container to produce an “oxides of nitrogen” containing solution. A reaction between the nitrites and the acid occurred instantly. The gas produced was released and 2 ml of the premixed liquid (0.25M) was added to 20 ml of distilled water to give a final concentration of the solution of 1.25 mM.
(§3) Separate samples of NaNO2, KNO2 and ascorbic acid were also prepared as described above.
(§4) An overnight culture of bacteria was prepared by inoculating 20 ml of LB (Luria-Bertani 10 g Bacto-tryptone, +5 g Bacto-yeast extract, +10 g sodium chloride per liter, at pH 7.5) broth with 2 to 3 colonies, and incubating at 37° C. overnight. Broth cultures containing approximately 109 organisms were produced. Bacteria were diluted 1:1000 using phosphate buffer saline (PBS) and 100 μl of diluted broth cultures were seeded on the Brain-Heart agar plates. Prior to seeding bacteria on to the surface of the agar plates a piece of agar (approximately 70 mm in diameter) from the centre of the plates was removed. […]

Candida Albicans (CA) = experiment: Agar plate antibacterial test (Example 2); conditions: liquid added to hollow circle of seeded agar plate, FIG. 2
Procedure: as §1, §2, §3, §4

[2] = test system: Pseudomonas Aeruginosa (PS); experiment: Agar plate antibacterial test (Example 3); conditions: liquid added to hollow circle of seeded agar plate, FIG. 3
Procedure: as §1, §2, §3, §4

[3] = test system: Coagulase negative Staphylococcus (CNS); experiment: Agar plate antibacterial test (Example 4); conditions: liquid added to hollow circle of seeded agar plate, FIG. 4
Procedure: as §1, §2, §3, §4

[4] = test system: Methicillin Resistant Staphylococcus Aureus (MRSA); experiment: Agar plate exposed to gaseous NO in a closed box (Example 5); format: cell-based; conditions: overnight incubation in closed box with NO gas, FIG. 5
Procedure: A Methicillin Resistant Staphylococcus Aureus (MRSA) culture was produced in the same manner as for Examples 1 to 4. The agar plate was placed in a polystyrene box. Gaseous NO was produced by reacting 10 ml 1M ascorbic acid with 5 ml 1M NaNO2 and 5 ml 1M KNO2 in the box and the lid of the box replaced immediately, followed by overnight incubation of the culture.

[5] = pH change on addition of L-ascorbic acid to sodium nitrite (Examples 16 and 17); format: physicochemical; conditions: 1M sodium nitrite in normal saline, before acid addition
Procedure: The pH change was measured when L-ascorbic acid was added to sodium nitrite incrementally and as a single addition.
Analytical grade (>99% purity) sodium nitrite (NaNO2) and L-ascorbic acid (C6H8O6) from Sigma-Aldrich, UK were used. Saline (0.9% wv of NaCl) was from Baxter Healthcare-UK was also used.
Normal saline was used as solvent in the preparation of the solutions of sodium nitrite and ascorbic acid. All solutions were prepared at room temperature (22-25° C.) in lots of 25 or 50 ml and were used within 10-20 days. Stock solutions were kept in airtight vessels away from light.
All pH measurements of the solutions were carried out with a Wissenschaftlich-Technische Werkstätten (WTW) pH meter, model pH340i along with a SenTix 20 pH combination electrode incorporating a thermocouple. The electrode was calibrated with freshly prepared buffer calibrating solutions (pH 7.00 and 4.00±0.002). Calibrating solutions were prepared from ALDRICH Tri-check buffer capsules, Aldrich, USA.
The pH of the solutions was measured with the addition of a standard magnetic stir bar operating at 60 rpm. At least 12 ml of solutions were used to ensure that the electrode was completely immersed. 1M solutions of sodium nitrite and ascorbic acid were prepared using normal saline as solvent. In Example 16, 1 ml of acid was added to the nitrite every 10 minutes. […]

O=C1O[C@H]([C@@H](O)CO)C(O)=C1O [A, ascorbic acid]
bacterial colonies on agar plate [1]: large amount of bacteria | bacterial colonies on agar plate (Candida Albicans (CA)): large amount of bacteria | bacterial colonies on agar plate [2]: large amount of bacteria | bacterial colonies on agar plate [3]: large amount of bacteria

[N]=O [Gaseous NO, nitric oxide]
visible bacterial cultures on agar plate [4]: no remaining visible bacterial cultures

O=NO [sodium nitrite solution, sodium nitrite]
initial pH [5]: approximately 7.35
